Results taken from ChEMBL document CHEMBL1201862, “PubChem BioAssay data set” (2004).
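Cells were grown in 96-well plates and exposed to each compound for 48 hours at five concentrations; endpoints were interpolated linearly between bracketing concentrations, or set to the highest concentration if not reached. At the GI50, growth is halved.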 Calls of active or inactive are those of the source. Rule as the data show it: active = GI50 up to about 1.1 µM and inactive = higher.

Legend:
Experiment in all cases: NCI-60 cell line screen, 48 h
CAKI-1 = test system: CAKI-1
NCI/ADR-RES = test system: NCI/ADR-RES
Hs-578T = test system: Hs-578T
T47D = test system: T47D
CCRF-CEM = test system: CCRF-CEM
SK-OV-3 = test system: SK-OV-3
OVCAR-3 = test system: OVCAR-3
RPMI-8226 = test system: RPMI-8226
HL-60 = test system: HL-60
MDA-MB-231 = test system: MDA-MB-231
HOP-92 = test system: HOP-92
HCT-116 = test system: HCT-116
SNB-75 = test system: SNB-75
SF-268 = test system: SF-268
U-251 = test system: U-251
NCI-H460 = test system: NCI-H460
TK-10 = test system: TK-10
LOX IMVI = test system: LOX IMVI
SNB-78 = test system: SNB-78
KM-20L2 = test system: KM-20L2

## Nc1[nH]nc2ccccc12
CAKI-1
  GI50: > 100 µM (inactive)
NCI/ADR-RES
  GI50: > 100 µM (inactive)
Hs-578T
  GI50: > 100 µM (inactive)
T47D
  GI50: > 100 µM (inactive)
CCRF-CEM
  GI50: > 100 µM (inactive)
SK-OV-3
  GI50: > 100 µM (inactive)
OVCAR-3
  GI50: > 100 µM (inactive)
RPMI-8226
  GI50: > 100 µM (inactive)
HL-60
  GI50: > 100 µM (inactive)
MDA-MB-231
  GI50: > 100 µM (inactive)
HOP-92
  GI50: > 100 µM (inactive)
HCT-116
  GI50: > 100 µM (inactive)
SNB-75
  GI50: > 100 µM (inactive)
SF-268
  GI50: > 100 µM (inactive)
U-251
  GI50: > 100 µM (inactive)
NCI-H460
  GI50: > 100 µM (inactive)
TK-10
  GI50: > 100 µM (inactive)
LOX IMVI
  GI50: > 100 µM (inactive)

## O=C1C(C2=[N+]([O-])c3ccccc3C2=O)=[N+]([O-])c2ccccc21
CCRF-CEM
  GI50: 19.3 µM (inactive)
SK-OV-3
  GI50: 53.2 µM (inactive)
SNB-78
  GI50: 38.3 µM (inactive)
OVCAR-3
  GI50: 16.3 µM (inactive)
RPMI-8226
  GI50: 20.2 µM (inactive)
HL-60
  GI50: 19.4 µM (inactive)
SNB-75
  GI50: 35.1 µM (inactive)
SF-268
  GI50: 28.2 µM (inactive)
U-251
  GI50: 20.4 µM (inactive)
NCI-H460
  GI50: 23.1 µM (inactive)
TK-10
  GI50: 35.4 µM (inactive)
LOX IMVI
  GI50: 15.6 µM (inactive)

## Cc1ccc(NNc2cc(=O)[nH]c(=O)[nH]2)cc1Cl
CAKI-1
  GI50: 14.4 µM (inactive)
NCI/ADR-RES
  GI50: 95.3 µM (inactive)
Hs-578T
  GI50: 83.2 µM (inactive)
T47D
  GI50: 9.95 µM (inactive)
CCRF-CEM
  GI50: 11.1 µM (inactive)
SK-OV-3
  GI50: 41.4 µM (inactive)
OVCAR-3
  GI50: 14.8 µM (inactive)
RPMI-8226
  GI50: 10.9 µM (inactive)
HL-60
  GI50: 3.08 µM (inactive)
MDA-MB-231
  GI50: 15.8 µM (inactive)
HOP-92
  GI50: 14.4 µM (inactive)
HCT-116
  GI50: 14.9 µM (inactive)
SNB-75
  GI50: > 100 µM (inactive)
SF-268
  GI50: 43.2 µM (inactive)
U-251
  GI50: 16.4 µM (inactive)
NCI-H460
  GI50: 33.2 µM (inactive)
TK-10
  GI50: 19.1 µM (inactive)
LOX IMVI
  GI50: 5.71 µM (inactive)

## O=c1[nH]nc(-c2ccccc2)n1Nc1ccccc1
CAKI-1
  GI50: > 100 µM (inactive)
NCI/ADR-RES
  GI50: > 100 µM (inactive)
Hs-578T
  GI50: > 100 µM (inactive)
T47D
  GI50: > 100 µM (inactive)
CCRF-CEM
  GI50: > 100 µM (inactive)
SK-OV-3
  GI50: > 100 µM (inactive)
OVCAR-3
  GI50: > 100 µM (inactive)
RPMI-8226
  GI50: > 100 µM (inactive)
HL-60
  GI50: > 100 µM (inactive)
MDA-MB-231
  GI50: > 100 µM (inactive)
HOP-92
  GI50: > 100 µM (inactive)
HCT-116
  GI50: > 100 µM (inactive)
SNB-75
  GI50: > 100 µM (inactive)
SF-268
  GI50: > 100 µM (inactive)
U-251
  GI50: > 100 µM (inactive)
NCI-H460
  GI50: > 100 µM (inactive)
TK-10
  GI50: > 100 µM (inactive)
LOX IMVI
  GI50: > 100 µM (inactive)

## CC1(C)CC(/C=C2/OC(=O)c3ccccc32)=C(C#N)C(=O)O1
CAKI-1
  GI50: > 100 µM (inactive)
CCRF-CEM
  GI50: > 100 µM (inactive)
SK-OV-3
  GI50: > 100 µM (inactive)
SNB-78
  GI50: > 100 µM (inactive)
OVCAR-3
  GI50: > 100 µM (inactive)
RPMI-8226
  GI50: > 100 µM (inactive)
KM-20L2
  GI50: > 100 µM (inactive)
HCT-116
  GI50: > 100 µM (inactive)
SNB-75
  GI50: > 100 µM (inactive)
SF-268
  GI50: > 100 µM (inactive)
U-251
  GI50: > 100 µM (inactive)
NCI-H460
  GI50: > 100 µM (inactive)
LOX IMVI
  GI50: > 100 µM (inactive)

## C=CCCON(C(=O)OC(C)(C)C)C(C)(C)C
CAKI-1
  GI50: > 100 µM (inactive)
NCI/ADR-RES
  GI50: > 100 µM (inactive)
Hs-578T
  GI50: > 100 µM (inactive)
T47D
  GI50: > 100 µM (inactive)
CCRF-CEM
  GI50: > 100 µM (inactive)
SK-OV-3
  GI50: > 100 µM (inactive)
OVCAR-3
  GI50: > 100 µM (inactive)
RPMI-8226
  GI50: > 100 µM (inactive)
HL-60
  GI50: > 100 µM (inactive)
MDA-MB-231
  GI50: > 100 µM (inactive)
HOP-92
  GI50: > 100 µM (inactive)
HCT-116
  GI50: > 100 µM (inactive)
SNB-75
  GI50: > 100 µM (inactive)
SF-268
  GI50: > 100 µM (inactive)
U-251
  GI50: > 100 µM (inactive)
NCI-H460
  GI50: > 100 µM (inactive)
TK-10
  GI50: > 100 µM (inactive)
LOX IMVI
  GI50: > 100 µM (inactive)

## Cc1ccc(/N=C/C=C(\Nc2ccc(C)cc2)c2ccc3ccccc3c2)cc1
CAKI-1
  GI50: 0.45 µM (active)
NCI/ADR-RES
  GI50: 0.445 µM (active)
Hs-578T
  GI50: 0.753 µM (active)
T47D
  GI50: 1.41 µM (inactive)
CCRF-CEM
  GI50: 0.189 µM (active)
SK-OV-3
  GI50: 0.731 µM (active)
OVCAR-3
  GI50: 0.364 µM (active)
RPMI-8226
  GI50: 0.536 µM (active)
HL-60
  GI50: 0.34 µM (active)
MDA-MB-231
  GI50: 0.388 µM (active)
HOP-92
  GI50: 10.6 µM (inactive)
HCT-116
  GI50: 0.434 µM (active)
SNB-75
  GI50: 0.468 µM (active)
SF-268
  GI50: 2.19 µM (inactive)
U-251
  GI50: 0.738 µM (active)
NCI-H460
  GI50: 0.489 µM (active)
TK-10
  GI50: 1.2 µM (inactive)
LOX IMVI
  GI50: 0.456 µM (active)

## COC12C=CC(CC1)c1c(O)ccc(O)c12 (stereo unspecified)
CAKI-1
  GI50: > 80.9 µM (inactive)
CCRF-CEM
  GI50: 20.6 µM (inactive)
SK-OV-3
  GI50: > 100 µM (inactive)
SNB-78
  GI50: 49.2 µM (inactive)
OVCAR-3
  GI50: 21.8 µM (inactive)
RPMI-8226
  GI50: 50.8 µM (inactive)
KM-20L2
  GI50: 82.8 µM (inactive)
HL-60
  GI50: 2.39 µM (inactive)
HCT-116
  GI50: 40.7 µM (inactive)
SNB-75
  GI50: 53.7 µM (inactive)
SF-268
  GI50: > 31.6 µM (inactive)
U-251
  GI50: 38.9 µM (inactive)
NCI-H460
  GI50: 52.8 µM (inactive)
TK-10
  GI50: > 49.7 µM (inactive)

## CN/C(=N\N=C1/C(=O)Nc2ccccc21)SCC(=O)c1ccc(Br)cc1
CAKI-1
  GI50: 28.8 µM (inactive)
NCI/ADR-RES
  GI50: 6.9 µM (inactive)
Hs-578T
  GI50: 10.9 µM (inactive)
T47D
  GI50: 9.48 µM (inactive)
CCRF-CEM
  GI50: 5.46 µM (inactive)
SK-OV-3
  GI50: 9.04 µM (inactive)
OVCAR-3
  GI50: 7.08 µM (inactive)
RPMI-8226
  GI50: 5.58 µM (inactive)
HL-60
  GI50: 3.48 µM (inactive)
MDA-MB-231
  GI50: 5.81 µM (inactive)
HOP-92
  GI50: 20.7 µM (inactive)
HCT-116
  GI50: 4.53 µM (inactive)
SNB-75
  GI50: 8.47 µM (inactive)
SF-268
  GI50: 18.6 µM (inactive)
U-251
  GI50: 5.21 µM (inactive)
NCI-H460
  GI50: 10.2 µM (inactive)
TK-10
  GI50: 15 µM (inactive)
LOX IMVI
  GI50: 8.38 µM (inactive)

## COc1cc(/C=C/C(=O)N[C@@H]2C(=O)N3[C@@H]2SC(C)(C)[C@@H]3C(=O)O)cc(OC)c1OC
CAKI-1
  GI50: > 100 µM (inactive)
NCI/ADR-RES
  GI50: > 100 µM (inactive)
Hs-578T
  GI50: > 100 µM (inactive)
T47D
  GI50: > 100 µM (inactive)
CCRF-CEM
  GI50: > 100 µM (inactive)
SK-OV-3
  GI50: > 100 µM (inactive)
OVCAR-3
  GI50: > 100 µM (inactive)
RPMI-8226
  GI50: > 100 µM (inactive)
HL-60
  GI50: > 100 µM (inactive)
MDA-MB-231
  GI50: > 100 µM (inactive)
HOP-92
  GI50: > 100 µM (inactive)
HCT-116
  GI50: > 100 µM (inactive)
SNB-75
  GI50: > 100 µM (inactive)
SF-268
  GI50: > 100 µM (inactive)
U-251
  GI50: > 100 µM (inactive)
NCI-H460
  GI50: > 100 µM (inactive)
TK-10
  GI50: > 100 µM (inactive)
LOX IMVI
  GI50: > 100 µM (inactive)

## COc1ccc(-c2c3c(cc4cc5c(cc24)OCO5)C(=O)OC3)cc1OC
CAKI-1
  GI50: 0.571 µM (active)
NCI/ADR-RES
  GI50: 0.132 µM (active)
Hs-578T
  GI50: 6.22 µM (inactive)
T47D
  GI50: 0.386 µM (active)
CCRF-CEM
  GI50: 4.06 µM (inactive)
SK-OV-3
  GI50: 13.4 µM (inactive)
OVCAR-3
  GI50: 0.885 µM (active)
RPMI-8226
  GI50: 0.0447 µM (active)
HL-60
  GI50: 0.271 µM (active)
MDA-MB-231
  GI50: 3.02 µM (inactive)
HOP-92
  GI50: 0.771 µM (active)
HCT-116
  GI50: 0.466 µM (active)
SNB-75
  GI50: 6.92 µM (inactive)
SF-268
  GI50: 5.85 µM (inactive)
U-251
  GI50: 4.67 µM (inactive)
NCI-H460
  GI50: 0.222 µM (active)
TK-10
  GI50: 42.2 µM (inactive)
LOX IMVI
  GI50: 0.0164 µM (active)

## CC(=O)OCCOc1cc2c([nH]c3ccccc32)c(C)c2cccc1-2
CAKI-1
  GI50: 2.12 µM (inactive)
NCI/ADR-RES
  GI50: 3.53 µM (inactive)
Hs-578T
  GI50: 3.47 µM (inactive)
T47D
  GI50: 1.92 µM (inactive)
CCRF-CEM
  GI50: 3.38 µM (inactive)
SK-OV-3
  GI50: 4.3 µM (inactive)
OVCAR-3
  GI50: 2.01 µM (inactive)
RPMI-8226
  GI50: 2.43 µM (inactive)
HL-60
  GI50: 3.05 µM (inactive)
MDA-MB-231
  GI50: 1.66 µM (inactive)
HOP-92
  GI50: 1.86 µM (inactive)
HCT-116
  GI50: 3.3 µM (inactive)
SNB-75
  GI50: 1.71 µM (inactive)
SF-268
  GI50: 2.47 µM (inactive)
U-251
  GI50: 1.69 µM (inactive)
NCI-H460
  GI50: 2.59 µM (inactive)
TK-10
  GI50: 2.2 µM (inactive)
LOX IMVI
  GI50: 2.61 µM (inactive)
